Test results taken from publication PMC10657444, “Design and evaluation of tadpole-like conformational antimicrobial peptides” (Communications Biology, 2023).
≈ marks a conversion by molar mass, not a printed value. Read-outs that look alike come from different tables or passages of the source. Non-standard residues stand in square brackets, D forms with d. Residues, ends and D or L forms follow the SMILES beside them. *: point of attachment. Octanoyl = CCCCCCCC(=O)*

Columns and labels:
E. coli ATCC 25922 = format: cell-based, Escherichia coli
Source text: (§1) Bacteria were cultivated in Luria-Bertani (LB) broth.

E. coli S = format: cell-based, Escherichia coli
Source text: as §1

A. baumannii 1337 = format: cell-based, Acinetobacter baumannii
Source text: as §1

A. baumannii 1318 = format: cell-based, Acinetobacter baumannii
Source text: as §1

MRSA USA 300 = format: cell-based, Staphylococcus aureus
Source text: as §1

MRSA ATCC 43300 = format: cell-based, Staphylococcus aureus
Source text: as §1

MRSA 3393 = format: cell-based, Staphylococcus aureus
Source text: as §1

K. pneumoniae 3026 = format: cell-based, Klebsiella pneumoniae
Source text: as §1

[1] = tested on: K. pneumoniae ATCC 700603; format: cell-based, Klebsiella pneumoniae
Source text: as §1

SMILES	MIC Gram- E. coli ATCC 25922 (E. coli ATCC 25922)	MIC Gram- E. coli S (E. coli S)	MIC Gram- A. b 1337 (A. baumannii 1337)	MIC Gram- A. b 1318 (A. baumannii 1318)	MIC Gram+ MRSA USA 300 (MRSA USA 300)	MIC Gram+ MRSA ATCC 43300 (MRSA ATCC 43300; ATCC 43300)	MIC Gram+ MRSA 3393 (MRSA 3393; 3393)	MIC Gram- K. p 3026 (K. pneumoniae 3026)	MIC Gram- K. p ATCC 700603 [1]	MIC Gram+ MRSA ATCC 43300 (MRSA ATCC 43300)	MIC Gram+ MRSA 3393 (MRSA 3393)
CC[C@H](C)[C@H](NC(=O)[C@H](CCCNC(=N)N)NC(=O)[C@H](CCCNC(=N)N)NC(=O)[C@H](CC(C)C)NC(=O)[C@H](Cc1ccccc1)NC(=O)[C@H](Cc1ccccc1)NC(=O)[C@H](Cc1ccccc1)NC(=O)[C@@H](N)Cc1ccc(O)cc1)C(=O)N[C@@H](Cc1ccccc1)C(N)=O [Y-SHf(R^5)] (H-YFFFLRRIF-NH2; N-terminus assumed)	50 µM (≈ 65.4 µg/mL)	> 100 µM	50 µM (≈ 65.4 µg/mL)	> 100 µM	6.25 µM (≈ 8.17 µg/mL)	3.13 µM (≈ 4.09 µg/mL)	3.13 µM (≈ 4.09 µg/mL)	> 100 µM	> 100 µM	–	–
CCCCCCCC(=O)N[C@@H](Cc1ccccc1)C(=O)N[C@@H](CC(C)C)C(=O)N[C@@H](CO)C(=O)N[C@@H](CCCNC(=N)N)C(=O)N[C@H](C(=O)N[C@@H](Cc1ccccc1)C(N)=O)[C@@H](C)CC [OA-SHf] (Octanoyl-FLSRIF-NH2)	> 100 µM	> 100 µM	> 100 µM	> 100 µM	> 100 µM	50 µM (≈ 45.4 µg/mL)	> 100 µM	> 100 µM	> 100 µM	–	–
CC[C@H](C)[C@H](NC(=O)[C@@H](CCCNC(=N)N)NC(=O)[C@H](CCCNC(=N)N)NC(=O)[C@H](CC(C)C)NC(=O)[C@H](Cc1ccccc1)NC(=O)[C@H](Cc1ccccc1)NC(=O)[C@H](Cc1ccccc1)NC(=O)[C@@H](N)Cc1ccccc1)C(=O)N[C@@H](Cc1ccccc1)C(N)=O [F-SHf(R^5,dR^6)] (H-FFFFLR[dR]IF-NH2; N-terminus assumed)	> 100 µM	25 µM (≈ 32.3 µg/mL)	25 µM (≈ 32.3 µg/mL)	25 µM (≈ 32.3 µg/mL)	3.13 µM (≈ 4.04 µg/mL)	3.13 µM (≈ 4.04 µg/mL)	3.13 µM (≈ 4.04 µg/mL)	> 100 µM	> 100 µM	–	–
CC[C@H](C)[C@H](NC(=O)[C@H](CCCNC(=N)N)NC(=O)[C@H](CO)NC(=O)[C@H](CC(C)C)NC(=O)[C@@H](N)Cc1ccccc1)C(=O)N[C@@H](Cc1ccccc1)C(N)=O [SHfΔ2F] (H-FLSRIF-NH2; N-terminus assumed)	> 100 µM	> 100 µM	> 100 µM	> 100 µM	> 100 µM	> 100 µM	> 100 µM	> 100 µM	> 100 µM	–	–
CC[C@H](C)[C@H](NC(=O)[C@H](CCCNC(=N)N)NC(=O)[C@H](CO)NC(=O)[C@H](CC(C)C)NC(=O)[C@H](Cc1ccccc1)NC(=O)[C@H](Cc1ccccc1)NC(=O)[C@H](Cc1ccccc1)NC(=O)[C@@H](N)Cc1ccc(O)cc1)C(=O)N[C@@H](Cc1ccccc1)C(N)=O [Y-SHf] (H-YFFFLSRIF-NH2; N-terminus assumed)	> 100 µM	> 100 µM	> 100 µM	> 100 µM	12.5 µM (≈ 15.5 µg/mL)	12.5 µM (≈ 15.5 µg/mL)	12.5 µM (≈ 15.5 µg/mL)	> 100 µM	> 100 µM	–	–
CC[C@H](C)[C@H](NC(=O)[C@H](CCCNC(=N)N)NC(=O)[C@@H](CCCNC(=N)N)NC(=O)[C@H](CC(C)C)NC(=O)[C@H](Cc1ccccc1)NC(=O)[C@H](Cc1ccccc1)NC(=O)[C@H](Cc1ccccc1)NC(=O)[C@@H](N)Cc1ccccc1)C(=O)N[C@@H](Cc1ccccc1)C(N)=O [F-SHf(dR^5)] (H-FFFFL[dR]RIF-NH2; N-terminus assumed)	> 100 µM	25 µM (≈ 32.3 µg/mL)	25 µM (≈ 32.3 µg/mL)	25 µM (≈ 32.3 µg/mL)	3.13 µM (≈ 4.04 µg/mL)	3.13 µM (≈ 4.04 µg/mL)	3.13 µM (≈ 4.04 µg/mL)	> 100 µM	> 100 µM	–	–
CC[C@H](C)[C@H](NC(=O)[C@H](CCCNC(=N)N)NC(=O)[C@H](CCC(=O)O)NC(=O)[C@H](CC(C)C)NC(=O)[C@H](Cc1ccccc1)NC(=O)[C@H](Cc1ccccc1)NC(=O)[C@@H](N)Cc1ccccc1)C(=O)N[C@@H](Cc1ccccc1)C(N)=O [SHf(E^5)] (H-FFFLERIF-NH2; N-terminus assumed)	> 100 µM	> 100 µM	> 100 µM	> 100 µM	> 100 µM	> 100 µM	> 100 µM	> 100 µM	> 100 µM	–	–
CC[C@H](C)[C@H](NC(=O)[C@H](CCCNC(=N)N)NC(=O)[C@H](CO)NC(=O)[C@H](CC(C)C)NC(=O)[C@H](Cc1ccccc1)NC(=O)[C@H](Cc1ccccc1)NC(=O)[C@H](Cc1ccc(O)cc1)NC(=O)[C@@H](N)Cc1ccc(O)cc1)C(=O)N[C@@H](Cc1ccccc1)C(N)=O [Y-SHf(Y^1)] (H-YYFFLSRIF-NH2; N-terminus assumed)	> 100 µM	> 100 µM	> 100 µM	> 100 µM	–	–	–	> 100 µM	> 100 µM	–	–
CC[C@@H](C)[C@@H](NC(=O)[C@@H](CCCNC(=N)N)NC(=O)[C@@H](CCCNC(=N)N)NC(=O)[C@@H](CC(C)C)NC(=O)[C@@H](Cc1ccccc1)NC(=O)[C@H](N)CCCNC(=N)N)C(=O)N[C@H](Cc1ccccc1)C(=O)N[C@H](Cc1ccccc1)C(=O)N[C@H](Cc1ccccc1)C(=O)N[C@H](Cc1ccccc1)C(N)=O [D-HT2] (H-[dR][dF][dL][dR][dR][dI][dF][dF][dF][dF]-NH2; N-terminus assumed)	50 µM (≈ 72.4 µg/mL)	25 µM (≈ 36.2 µg/mL)	12.5 µM (≈ 18.1 µg/mL)	6.25 µM (≈ 9.05 µg/mL)	6.25 µM (≈ 9.05 µg/mL)	6.25 µM (≈ 9.05 µg/mL)	6.25 µM (≈ 9.05 µg/mL)	> 100 µM	100 µM (≈ 145 µg/mL)	–	–
CC[C@H](C)[C@H](NC(=O)[C@H](CCCNC(=N)N)NC(=O)[C@H](CCCNC(=N)N)NC(=O)[C@H](CC(C)C)NC(=O)[C@H](Cc1ccccc1)NC(=O)[C@H](Cc1ccccc1)NC(=O)[C@H](Cc1ccccc1)NC(=O)[C@H](Cc1ccccc1)NC(=O)[C@@H](N)Cc1ccccc1)C(=O)N[C@@H](Cc1ccccc1)C(N)=O [FF-SHf(R^5)] (H-FFFFFLRRIF-NH2; N-terminus assumed)	> 100 µM	100 µM (≈ 144 µg/mL)	> 100 µM	50 µM (≈ 71.9 µg/mL)	3.13 µM (≈ 4.5 µg/mL)	1.57 µM (≈ 2.26 µg/mL)	–	> 100 µM	> 100 µM	1.57 µM (≈ 2.26 µg/mL)	1.57 µM (≈ 2.26 µg/mL)
CC[C@H](C)[C@H](NC(=O)[C@@H](CCCNC(=N)N)NC(=O)[C@@H](CCCNC(=N)N)NC(=O)[C@H](CC(C)C)NC(=O)[C@H](Cc1ccccc1)NC(=O)[C@H](Cc1ccccc1)NC(=O)[C@H](Cc1ccccc1)NC(=O)[C@@H](N)Cc1ccccc1)C(=O)N[C@@H](Cc1ccccc1)C(N)=O [F-SHf(dR^5, 6)] (H-FFFFL[dR][dR]IF-NH2; N-terminus assumed)	> 100 µM	6.25 µM (≈ 8.07 µg/mL)	25 µM (≈ 32.3 µg/mL)	12.5 µM (≈ 16.1 µg/mL)	3.13 µM (≈ 4.04 µg/mL)	3.13 µM (≈ 4.04 µg/mL)	3.13 µM (≈ 4.04 µg/mL)	25 µM (≈ 32.3 µg/mL)	25 µM (≈ 32.3 µg/mL)	–	–
CC[C@H](C)[C@H](NC(=O)[C@H](CCCNC(=N)N)NC(=O)[C@H](CO)NC(=O)[C@H](CC(C)C)NC(=O)[C@H](Cc1ccccc1)NC(=O)[C@H](Cc1ccccc1)NC(=O)[C@@H](N)Cc1ccc(O)cc1)C(=O)N[C@@H](Cc1ccccc1)C(N)=O [SHf(Y^1)] (H-YFFLSRIF-NH2; N-terminus assumed)	> 100 µM	> 100 µM	> 100 µM	> 100 µM	–	> 100 µM	–	> 100 µM	> 100 µM	–	–
CC[C@H](C)[C@H](NC(=O)[C@H](CCCNC(=N)N)NC(=O)[C@H](CO)NC(=O)[C@H](CC(C)C)NC(=O)[C@H](Cc1ccccc1)NC(=O)[C@@H](N)Cc1ccccc1)C(=O)N[C@@H](Cc1ccccc1)C(N)=O [SHfΔ1F] (H-FFLSRIF-NH2)	> 100 µM	> 100 µM	> 100 µM	> 100 µM	> 100 µM	> 100 µM	> 100 µM	> 100 µM	> 100 µM	–	–
